Assay results taken from ChEMBL document CHEMBL1152162, “Coagulanolide, a withanolide from Withania coagulans fruits and antihyperglycemic activity” (2008).

Experiments:
Assay type in all cases: functional
Mus musculus [1] = assay: Antihyperglycemic activity in diabetic C57BL/KsJ-db/db mouse model assessed as improvement in glucose tolerance at 50 mg/kg, po for 10 days relative to control by OGTT
Mus musculus [2] = assay: Antihyperglycemic activity in diabetic C57BL/KsJ-db/db mouse model assessed as decrease in postprandial blood glucose level at 50 mg/kg, po for 10 days relative to control; parameters: scale not given: the % may be the effect or the level left
Rattus norvegicus [3] = assay: Antihyperglycemic activity in Sprague-Dawley normoglycemic rat model assessed as glucose tolerance at 100 mg/kg, po administered 30 mins before sucrose-load
Mus musculus [4] = assay: Antihyperglycemic activity in diabetic C57BL/KsJ-db/db mouse model assessed as increase in high-density lipoprotein cholesterol at 50 mg/kg, po for 10 days relative to control
Mus musculus [5] = assay: Antihyperglycemic activity in diabetic C57BL/KsJ-db/db mouse model assessed as decrease in plasma triglyceride level at 50 mg/kg, po for 10 days relative to control; parameters: scale not given: the % may be the effect or the level left
Mus musculus [6] = assay: Antihyperglycemic activity in diabetic C57BL/KsJ-db/db mouse model assessed as decrease in total cholesterol at 50 mg/kg, po for 10 days relative to control; parameters: scale not given: the % may be the effect or the level left
Rattus norvegicus [7] = assay: Antihyperglycemic activity in streptozotocin-induced diabetic Sprague-Dawley rat model assessed as glucose tolerance at 100 mg/kg, po administered 30 mins before sucrose-load
Mus musculus [8] = assay: Antihyperglycemic activity in po dosed diabetic C57BL/KsJ-db/db mouse model assessed as decrease in postprandial blood glucose level for 10 days; conditions: 240 h
Mus musculus [9] = assay: Antihyperglycemic activity in diabetic C57BL/KsJ-db/db mouse model assessed as decrease in blood glucose AUC at 50 mg/kg, po for 10 days relative to control; parameters: scale not given: the % may be the effect or the level left
Mus musculus [10] = assay: Antihyperglycemic activity in diabetic C57BL/KsJ-db/db mouse model assessed as decrease in very low-density lipoprotein cholesterol at 50 mg/kg, po for 10 days relative to control; parameters: scale not given: the % may be the effect or the level left
Mus musculus [11] = assay: Antihyperglycemic activity in diabetic C57BL/KsJ-db/db mouse model assessed as decrease in low-density lipoprotein cholesterol at 50 mg/kg, po for 10 days relative to control; parameters: scale not given: the % may be the effect or the level left

With `CC1=C(C)C(=O)O[C@@H]([C@](C)(O)[C@]2(O)CC[C@@]3(O)[C@@H]4CC=C5C[C@@H](O[C@@H]6O[C@H](CO)[C@@H](O)[C@H](O)[C@H]6O)CC(=O)[C@]5(C)[C@H]4CC[C@]23C)C1` the Activity (Mus musculus [1]) was 44.1%, the Activity (Mus musculus [2]) was 22.7% and the Activity (Rattus norvegicus [3]) was 29.8%. For the same compound, the Activity (Mus musculus [4]) was 24.7%, the Activity (Mus musculus [5]) was 14.7% and the Activity (Mus musculus [6]) was 25.7%. It also gave an Activity (Rattus norvegicus [7]) of 23.3%, an ED50 (Mus musculus [8]) of 25 mg/kg and an Activity (Mus musculus [9]) of 40.5%. For the same compound, the Activity (Mus musculus [10]) was 15.6% and the Activity (Mus musculus [11]) was 21.2%.
In the case of `CC1=C(C)C(=O)O[C@@H]([C@](C)(O)[C@]2(O)CC[C@@]3(O)[C@@H]4CC=C5C=CCC(=O)[C@]5(C)[C@H]4CC[C@]23C)C1`, the Activity (Rattus norvegicus [3]) is reported as 20.4% and the Activity (Rattus norvegicus [7]) is reported as 15.8%.
Compound `CC1=C(C)C(=O)O[C@@H]([C@](C)(O)[C@]2(O)C[C@H](O)[C@@]3(O)[C@@H]4CC=C5CC=CC(=O)[C@]5(C)[C@H]4CC[C@@]32C)C1` [COAGULANOLIDE] has an Activity (Rattus norvegicus [3]) of 28.1% and an Activity (Rattus norvegicus [7]) of 14.7%.
For `CC1=C(C)C(=O)O[C@@H]([C@]2(C)O[C@@]34CC[C@]2(O)[C@@]3(C)CC[C@H]2[C@H]4CC=C3CC=CC(=O)[C@@]32C)C1` [COAGULIN C], the Activity (Rattus norvegicus [3]) was 22.8% and the Activity (Rattus norvegicus [7]) was 16.9%.
`CC(C)OC(=O)C(C)(C)Oc1ccc(C(=O)c2ccc(Cl)cc2)cc1` [FENOFIBRATE] was tested, and the Activity (Mus musculus [4]) was 12.4%, the Activity (Mus musculus [5]) was 16.2% and the Activity (Mus musculus [6]) was 30.8%. The Activity (Mus musculus [10]) was 21.6% and the Activity (Mus musculus [11]) was 24.5%.
For `CN(C)C(=N)NC(=N)N` [METFORMIN], the Activity (Mus musculus [1]) was 24.8%, the Activity (Mus musculus [2]) was 18.6% and the Activity (Rattus norvegicus [3]) was 26.4%. It also gave an Activity (Rattus norvegicus [7]) of 17.1% and an Activity (Mus musculus [9]) of 24.8%.
`CC1=C(C)C(=O)O[C@@H]([C@](C)(O)[C@]2(O)CC[C@@]3(O)[C@@H]4CC=C5CC=CC(=O)[C@]5(C)[C@H]4CC[C@]23C)C1` [WITHANOLIDE F] was tested, and the Activity (Rattus norvegicus [3]) was 24.9% and the Activity (Rattus norvegicus [7]) was 18.2%.
